Series [1] has as its system HeLa (human cervical epithelioid carcinoma). Kind of series: MTT assay, HeLa. Format: cell-based. To be noted: for IC50: MTT assay, HeLa, read-out: IC50 (±SD), HeLa; for Selectivity index (SI), HeLa: IC50 HDF / IC50 HeLa. As for the experimental part:
(§1) All the cell lines and mediums were obtained from the American Type Culture Collection (ATCC) supplied by LGC-Standards (Lomianki, Poland). Human cancer cell lines were cultured as follows: HeLa (human cervix carcinoma) and KB (human oral squamous carcinoma) lines were cultured in DMEM (Dulbecco’s Modified Eagle’s Medium); MCF-7 (human breast carcinoma) and A-549 (human lung carcinoma) were cultured in RPMI 1640 medium; PC-3 (human prostate carcinoma) was cultured in F-12K medium; SKOV-3 (human ovarian cystadenocarcinoma) was cultured in McCoy’s modified medium; HDF (human normal dermal fibroblasts) was cultured in Fibroblast Basal Medium. Each medium was supplemented with 10% fetal bovine serum, 1% L- glutamine and 1% penicillin/streptomycin solution. The cell lines were kept in an incubator at 37 °C.
(§2) All the tested cell lines (HeLa, KB, MCF-7, A-549, PC-3, SKOV-3 and HDF) were subjected to MTT assay. In short, this assay is based on the reaction between mitochondria enzymes (dehydrogenases) of tested cell lines and 3-(4,5-dimethylthiazol-2-yl)-2,5-diphenyltetrazolium bromide (MTT). The final product of this reaction gives violet formazan crystals. The number of live cells is proportional to the amount of formazan and is represented by the violet dye reagent. The details of the experiments are given in [19].
(In general: Formazan colour is commonly taken as a measure of viable cells.)

For series [2], the system named is KB (human oral squamous carcinoma). Kind of series: MTT assay, KB. Format: cell-based. To be noted: for IC50: MTT assay, KB; for Selectivity index (SI), KB: IC50 HDF / IC50 KB. Here is the method: as §1, §2
Series [3] deals with MCF-7 (human breast carcinoma). Kind of series: MTT assay, MCF-7. Type of series: cell-based. Particulars: for IC50: MTT assay, MCF-7, read-out: IC50 (±SD), MCF-7; for Selectivity index (SI), MCF-7: IC50 HDF / IC50 MCF-7. As for the experimental part: as §1, §2
The test system of series [4] is A-549 (human lung carcinoma). Kind of series: MTT assay, A-549. Format: cell-based. Particulars: for IC50: MTT assay, A-549, read-out: IC50 (±SD), A-549; for Selectivity index (SI), A-549: IC50 HDF / IC50 A-549. Here is the method:
as §1, §2

The subject of series [5] is PC-3 (human prostate carcinoma). Kind of series: MTT assay, PC-3. Format: cell-based. To be noted: for IC50: MTT assay, PC-3, read-out: IC50 (±SD), PC-3; for Selectivity index (SI), PC-3: IC50 HDF / IC50 PC-3. As for the experimental part: as §1, §2
Series [6] concerns SKOV-3 (human ovarian carcinoma). As to the kind of experiment: MTT assay, SKOV-3. Format: cell-based. Particulars: for IC50: MTT assay, SKOV-3, read-out: IC50 (±SD), SKOV-3; for Selectivity index (SI), SKOV-3: IC50 HDF / IC50 SKOV-3. Here is the method: as §1, §2
The test system of series [7] is HDF (human dermal fibroblasts). Kind of series: MTT assay, normal HDF. Format: cell-based. To be noted: read-out: IC50 (±SD), HDF. As for the experimental part:
as §1, §2

The next series can be described thus: CUPRAC antioxidant assay. To be noted: calculated from Trolox standard curve. As for the experimental part: (§3) The results are presented as % inhibition of the copper(II) ions and Trolox equivalent calculated from the standard curve (Figure 9) and as % inhibition of the DPPH radical and Trolox equivalent, calculated from the standard curve (Figure 10).
(§4) The CUPRAC reagent (7.5 mM ethanolic 96% neocuproine solution, 10 mM CuCl2 × H2O solution and an ammonium acetate buffer of pH 7.0) and DPPH reagent (2,2-diphenyl-1-picrylhydrazyl 0.2 mM solution) were applied.
(§5) The CUPRAC method measures the reducing power of a sample by quantifying its ability to convert the Cu-neocuproine reagent complex to the Cu(I) form. In contrast, the DPPH assay relies on the ability of an antioxidant to donate a hydrogen atom or an electron to the stable DPPH radical, resulting in its reduction and subsequent color change. The results are presented as % inhibition of the copper(II) ions and Trolox equivalent calculated from the standard curve (Figure 9) and as % inhibition of the DPPH radical and Trolox equivalent, calculated from the standard curve (Figure 10). The spectroscopic detection in CUPRAC and DPPH assays was conducted with Synergy H1 Multi-Mode Microplate Reader (BioTek Instruments, Inc., Winooski, VT, USA). The details of the experiments are given in [102].

The nature of a further series: DPPH antioxidant assay. Particulars: calculated from Trolox standard curve. As for the experimental part: as §3, §4, §5
The test system of series [8] is HeLa, KB, MCF-7, A-549, PC-3 and SKOV-3. As to the kind of experiment: MTT assay, summary over the cancer cell lines. Format: cell-based, human. Here is the method: as §1, §2
The subject of another series is SKOV-3. As to the kind of experiment: Apoptosis assay (Cell Death Detection ELISA Plus), SKOV-3. Type of series: cell-based, human. To be noted: SKOV-3, 4 h incubation, enrichment of mono- and oligonucleosomes vs negative control. As for the experimental part: (§6) The induction of apoptosis by tested compounds was determined with Cell Death Detection ELISA Plus from Roche Diagnostics GmbH (Mannheim, Germany).
(§7) Cell Death Detection ELISA Plus is an enzyme immunoassay for determining cytoplasmic histone-associated DNA fragments (mono- and […]) after induced cell death. Cells (10^4) were pipetted into wells of 96-well plates, and test compounds were added at final concentrations of 0.1, 1.0 and 10.0 µg × mL^−1. Cells incubated in the absence of test compounds served as negative controls. After 4 h of incubation, cells were harvested by centrifugation of the plates for 10 min at 200× g. Supernatants were removed carefully, and cell pellets were resuspended in 200 µL of cell lysis buffer and incubated for 30 min at room temperature. After centrifugation of the plates (10 min at 200× g), 20 µL of cell lysates was transferred in duplicate into wells of provided streptavidin-coated microplates. Then, 80 µL of the immunoreagent containing a mixture of anti-histone-biotin monoclonal antibody and anti-DNA-peroxidase monoclonal antibody was added to each well. The microplates were covered with a provided adhesive foil and incubated for 2 h at room temperature. Thereafter, the solution in the wells was removed by tapping the microplate. The wells were rinsed three times with incubation buffer, and 100 µL of substrate (2,2′-azino-bis [3-ethylbenzothiazoline-6-sulphonic acid], ABTS) was added to each well. After 10–20 min, 100 µL of ABTS stop solution was pipetted to each well, and the absorbance was read at 405 nm (test wavelength) and 490 nm (reference wavelength). The apoptotic index was calculated based on the enrichment of mono- and oligonucleosomes according to the following equation:apoptotic index = [{A405(sample) − A490(sample)}/{A405(negative control) − A490(negative control)}]
A general note: ELISA stands for enzyme-linked immunosorbent assay.

The next series concerns PC-3. As to the kind of experiment: Apoptosis assay (Cell Death Detection ELISA Plus), PC-3. Format: cell-based, human. To be noted: PC-3, 4 h incubation, enrichment of mono- and oligonucleosomes vs negative control. Here is the method: as §6, §7

Results on 5 molecules are retold here after publication PMC12196235, “Enhancing the Pharmacological Properties of Triterpenes Through Acetylation: An Anticancer and Antioxidant Perspective” (Molecules, 2025).

For orientation: IC50 means the midpoint of a concentration-inhibition curve.

Several values for one entry are separate records, joined by “and”; a condition that tells them apart may be missing. Equal entries are not always repeated. Where two headings read alike, the source gives them in different places. Some results are limits rather than exact numbers.

With `CC(=O)OCC12CCC(C)(C)CC1C1=CCC3C4(C)CCC(OC(C)=O)C(C)(C)C4CCC3(C)C1(C)CC2` (stereo not shown) [2b, 3,28-di-O-Acetylerythrodiol], the concentration for half-maximal inhibition (IC50) in series [1] (Homo sapiens) worked out at 70.3 µM; in series [2] (Homo sapiens), 50 µM; in [3] (Homo sapiens, MCF7) it was 61.6 µM; in series [4] (Homo sapiens, A549), 51.6 µM; in series [5] (Homo sapiens), 25.1 µM; in series [6] (Homo sapiens, SK-OV-3), 25.5 µM. Also, the IC50 in [7] (Homo sapiens, Fibroblast) was found to be 53.1 µM. Besides, the “Selectivity index (SI), HeLa” value in [1] is listed as 0.75. Moreover, the “Selectivity index (SI), KB” value in [2] was determined as 1.06. For the same molecule, the “Selectivity index (SI), MCF-7” value in series [3] is recorded as 0.86. Moreover, in [4], the “Selectivity index (SI), A-549” value is recorded as 1.03. Besides, in series [5], the “Selectivity index (SI), PC-3” value was 2.11. Besides, the “Selectivity index (SI), SKOV-3” value in series [6] was 2.08. Besides, the “Trolox Equivalent, CUPRAC Assay” value in “CUPRAC antioxidant assay” was 0.2402 mg/mL and 0.2402 ± 0.00995 mg/mL. In addition, the “Trolox Equivalent, DPPH Assay” value in “DPPH antioxidant assay” is on record as 0.00313 ± 0.00013 mg/mL.

On to `CC1(C)CC[C@]23CC[C@]4(C)[C@H](CC[C@@H]5[C@@]6(C)CC[C@H](O)C(C)(C)[C@@H]6CC[C@]54C)[C@H]2[C@H]1OC3` [3a, allobetulin], for which the IC50 turned out to be 49.4 µM in series [1] (Homo sapiens); 45.3 µM in [2] (Homo sapiens); 71.1 µM in series [3] (Homo sapiens, MCF7); 51.7 µM in [4] (Homo sapiens, A549); 20.2 µM in [5] (Homo sapiens); 20.9 µM in series [6] (Homo sapiens, SK-OV-3). The IC50 in [7] (Homo sapiens, Fibroblast) was 48.2 µM; in series [8] (Homo sapiens, MTT assay, range over tested cancer cell lines) it was 20 to 70 µM. Also, the “Selectivity index (SI), HeLa” value in series [1] is reported as 0.97. For the same molecule, the “Selectivity index (SI), KB” value in series [2] is 1.06. Also, the “Selectivity index (SI), MCF-7” value in series [3] came out at 0.68. Besides, the “Selectivity index (SI), A-549” value in [4] turned out to be 0.93. Also, the “Selectivity index (SI), PC-3” value in [5] was 2.39. Also, in series [6], the “Selectivity index (SI), SKOV-3” value is on record as 2.30. For the same molecule, in the series on SKOV-3, the “Apoptotic index (AI), SKOV-3” value is given as 5.78 (0.01). Moreover, in the series with PC-3, the “Apoptotic index (AI), PC-3” value is reported as 5.27 (0.01). Also, in the series “CUPRAC antioxidant assay”, the “Trolox Equivalent, CUPRAC Assay” value is 0.08248 mg/mL and 0.08248 ± 0.005 mg/mL. Moreover, the “Trolox Equivalent, DPPH Assay” value in “DPPH antioxidant assay” is 0.01677 ± 0.000694 mg/mL.

In the case of `CC(=O)OC1CCC2(C)C(CCC3(C)C2CCC2C4C5OCC4(CCC5(C)C)CCC23C)C1(C)C` (stereo not shown) [3b, 3-O-Acetylallobetulin], the IC50 was more than 100 µM in series [1]; more than 100 µM in series [2]; more than 100 µM in series [3]; more than 100 µM in series [4]; 52.2 µM in series [5]; 53.1 µM in [6]. For the same molecule, the half-inhibitory concentration (IC50) in series [7] worked out at 62 µM. For the same molecule, in “CUPRAC antioxidant assay”, the “Trolox Equivalent, CUPRAC Assay” value is 0.03212 mg/mL and 0.03212 ± 0.00166 mg/mL. Moreover, the “Trolox Equivalent, DPPH Assay” value in the series “DPPH antioxidant assay” is 0.00182 mg/mL and 0.00182 ± 0.000755 mg/mL.

For the molecule `C=C(C)C1CCC2(C(=O)O)CCC3(C)C(CCC4C5(C)CCC(OC(C)=O)C(C)(C)C5CCC43C)C12` (stereo not shown) [4b, 3-O-Acetylbetulinic acid], the IC50 in series [1] (Homo sapiens) turned out to be 1.62 µM; in [2] (Homo sapiens) it was 1.5 µM; in series [3] (Homo sapiens, MCF7), 1.5 µM; in series [4] (Homo sapiens, A549), 1.23 µM; in series [5] (Homo sapiens) it was 0.93 µM; in series [6] (Homo sapiens, SK-OV-3), 1.03 µM. In series [7] (Homo sapiens, Fibroblast), the IC50 is 2.88 µM. In addition, the “Selectivity index (SI), HeLa” value in series [1] was 1.77. For the same molecule, the “Selectivity index (SI), KB” value in series [2] is reported as 1.92. Also, in series [3], the “Selectivity index (SI), MCF-7” value was determined as 1.92. Further, the “Selectivity index (SI), A-549” value in series [4] came out at 2.34. Also, the “cytotoxic activity class” value in [8] (classification by IC50 (good ≤ 10 μM, moderate 10–30 μM, ref 83)) is listed as “very high cytotoxic activity”. Besides, the “Apoptotic index (AI), SKOV-3” value with SKOV-3 was 7.81 (0.02). Also, the “Apoptotic index (AI), PC-3” value in the series on PC-3 is 7.09 (0.01). Further, the “Trolox Equivalent, CUPRAC Assay” value in “CUPRAC antioxidant assay” is 0.1999 mg/mL and 0.1999 ± 0.0015 mg/mL. Further, the “Trolox Equivalent, DPPH Assay” value in “DPPH antioxidant assay” is 0.00376 ± 0.000156 mg/mL.

As to `C=C(C)[C@@H]1CC[C@]2(C)CC[C@]3(C)[C@H](CC[C@@H]4[C@@]5(C)CC[C@H](OC(C)=O)C(C)(C)[C@@H]5CC[C@]43C)[C@@H]12` [6b, 3-O-Acetylolupeol], the IC50 in series [1] was determined as 72.6 µM; in [2], 72.5 µM; in series [3], 50 µM; in [4] it was 56.2 µM; in series [5], 22.2 µM; in [6], 21.1 µM. In addition, the half-inhibitory concentration (IC50) in series [7] is 35 µM. In addition, the “Trolox Equivalent, CUPRAC Assay” value in the series “CUPRAC antioxidant assay” is 0.1349 ± 0.00514 mg/mL. Further, in “DPPH antioxidant assay”, the “Trolox Equivalent, DPPH Assay” value is 0.00348 ± 0.000144 mg/mL.
